Assay results from patent publication US7135466B2 (Kirin Beer Kabushiki Kaisha, priority 1999, dated 2006).
pIC50: −log10 of the molar value. Read-outs that look alike come from different tables or passages of the source.

Columns and labels:
PDGF-Ra = molecular target: T1, PDGF-Ra (Homo sapiens, UniProt P16234); assay: Inhibitory activity against PDGF-Ra phosphorylation by PDGF-AA stimulation using G292; type: cell-based; conditions: for pIC50: > means inhibition at indicated concentration not more than 50%, < and << not less than 50%, read-out: PDGF (E) IC50; for inhibition at 0.1 µM: G292, at 100 nM, read-out: PDGF (E) inhibition (%) at 100 nM
T1 construct: host or cells: G-292 human osteosarcoma cells
T1 sequence (P16234 24-1089): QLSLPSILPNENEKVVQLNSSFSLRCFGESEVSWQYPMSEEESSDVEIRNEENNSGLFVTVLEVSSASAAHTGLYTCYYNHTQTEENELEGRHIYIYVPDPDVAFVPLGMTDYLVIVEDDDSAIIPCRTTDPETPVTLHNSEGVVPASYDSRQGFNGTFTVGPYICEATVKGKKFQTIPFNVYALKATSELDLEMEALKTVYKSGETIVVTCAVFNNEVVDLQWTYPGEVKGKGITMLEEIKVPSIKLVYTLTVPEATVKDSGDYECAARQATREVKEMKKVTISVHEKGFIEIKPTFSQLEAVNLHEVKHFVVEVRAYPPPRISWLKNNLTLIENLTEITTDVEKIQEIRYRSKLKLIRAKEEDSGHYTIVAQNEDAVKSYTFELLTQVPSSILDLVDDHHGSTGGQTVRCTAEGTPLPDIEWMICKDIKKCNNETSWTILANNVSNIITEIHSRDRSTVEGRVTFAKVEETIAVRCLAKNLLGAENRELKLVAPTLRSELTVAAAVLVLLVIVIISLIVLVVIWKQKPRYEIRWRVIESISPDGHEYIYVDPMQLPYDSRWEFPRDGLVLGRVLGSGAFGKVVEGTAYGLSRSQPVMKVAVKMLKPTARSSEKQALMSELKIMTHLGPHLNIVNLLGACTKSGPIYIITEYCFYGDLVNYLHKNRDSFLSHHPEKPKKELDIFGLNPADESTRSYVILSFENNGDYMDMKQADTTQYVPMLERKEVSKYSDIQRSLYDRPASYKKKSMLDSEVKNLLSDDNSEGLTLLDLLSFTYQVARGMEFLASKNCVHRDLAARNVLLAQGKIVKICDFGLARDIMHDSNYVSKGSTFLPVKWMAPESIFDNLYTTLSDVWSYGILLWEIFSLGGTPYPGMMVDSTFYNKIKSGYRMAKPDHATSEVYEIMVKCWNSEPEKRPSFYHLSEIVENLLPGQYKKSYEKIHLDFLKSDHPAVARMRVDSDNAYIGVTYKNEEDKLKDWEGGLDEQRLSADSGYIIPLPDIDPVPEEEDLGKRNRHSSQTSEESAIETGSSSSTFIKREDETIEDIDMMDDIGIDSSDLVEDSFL
Procedure, shortened: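 In G-292 osteosarcoma cells kept overnight in 0.1% FBS, compound exposure (1 hr, 37 °C) preceded PDGF-AA stimulation at 50 ng/ml for 5 min; receptor phosphotyrosine was then detected by PY-20 capture ELISA.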

c-kit = molecular target: T2, c-kit (Homo sapiens, UniProt P10721); assay: Inhibitory activity against c-kit autophosphorylation (MO7e cells, h-SCF); type: cell-based; conditions: for pIC50: MO7e cells, read-out: c-kit IC50; for inhibition at 1 µM: Mo7e, at 1000 nM
T2 construct: MO7e (human megakaryocytic leukemia cell line) which had been arrested for 20 hr; endogenous in cells; host or cells: MO7e human megakaryocytic leukemia cell line
T2 sequence (P10721 26-976): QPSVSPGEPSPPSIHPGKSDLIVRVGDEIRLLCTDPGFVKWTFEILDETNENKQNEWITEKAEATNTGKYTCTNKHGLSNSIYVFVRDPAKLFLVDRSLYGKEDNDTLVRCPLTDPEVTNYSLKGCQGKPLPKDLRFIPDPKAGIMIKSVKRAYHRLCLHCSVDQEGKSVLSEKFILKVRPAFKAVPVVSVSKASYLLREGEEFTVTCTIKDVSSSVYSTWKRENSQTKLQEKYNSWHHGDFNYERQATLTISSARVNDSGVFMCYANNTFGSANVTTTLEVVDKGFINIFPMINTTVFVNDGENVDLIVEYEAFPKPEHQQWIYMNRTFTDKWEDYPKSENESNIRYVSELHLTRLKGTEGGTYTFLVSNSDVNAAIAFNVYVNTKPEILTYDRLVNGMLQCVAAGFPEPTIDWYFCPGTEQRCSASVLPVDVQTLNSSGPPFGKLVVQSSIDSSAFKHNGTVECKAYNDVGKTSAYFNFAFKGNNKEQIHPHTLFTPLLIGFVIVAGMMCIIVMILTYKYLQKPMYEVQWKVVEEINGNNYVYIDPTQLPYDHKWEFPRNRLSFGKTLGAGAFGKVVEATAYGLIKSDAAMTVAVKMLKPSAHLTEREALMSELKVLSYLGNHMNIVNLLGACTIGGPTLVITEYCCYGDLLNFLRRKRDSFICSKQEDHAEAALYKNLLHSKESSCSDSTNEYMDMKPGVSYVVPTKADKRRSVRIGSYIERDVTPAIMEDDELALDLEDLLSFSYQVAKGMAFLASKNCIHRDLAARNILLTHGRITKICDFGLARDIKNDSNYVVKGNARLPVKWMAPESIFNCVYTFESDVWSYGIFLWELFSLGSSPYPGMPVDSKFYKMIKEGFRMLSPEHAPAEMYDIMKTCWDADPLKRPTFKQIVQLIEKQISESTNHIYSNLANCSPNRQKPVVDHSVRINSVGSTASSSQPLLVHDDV
Procedure, shortened: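 In this cellular autophosphorylation assay, compound-treated MO7e cells (1 hr) were challenged with human stem cell factor at 50 ng/ml for 5 min; detection relied on PY-20 capture and anti-c-kit/HRP immunodetection at 450 nm.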

[1] = figure within parentheses in −( ) or >1000( )
[2] = figure within parentheses in >100( )

Molecule	pIC50 (PDGF-Ra)	pIC50 (PDGF-Ra; Pharmacological Test Example 1)	pIC50 (c-kit; h-SCF 50 ng/ml)	also measured
CCN(CCNC(=O)Nc1ccc(Oc2ncnc3cc(OC)c(OC)cc23)cc1OC)c1cccc(C)c1 [Example 668, N-{4-[(6,7-Dimethoxy-4-quinazolinyl)oxy]-2-methoxyphenyl}-N′-[2-(ethyl-3-methylanilino)ethyl]urea]	> 8.00	–	–	pIC50 (c-kit; 50 ng/ml h-SCF): 6.84
COc1cc2nccc(Oc3ccc(NC(=S)NC(=O)c4ccc(-c5ccccc5)cc4)cc3F)c2cc1OC [Example 991, N-{4-[(6,7-Dimethoxy-4-quinolyl)oxy]-3-fluorophenyl}-N′-(4-phenylbenzoyl)thiourea]	7.72	–	–	inhibition at 1 µM (c-kit; figure in parentheses in −( )): 20%
COc1cc2nccc(Oc3ccc(NC(=S)NC(=O)Cc4ccccc4)cc3Cl)c2cc1OC [Example 1147, N-{3-Chloro-4-[(6,7-dimethoxy-4-quinolyl)oxy]phenyl}-N′-(2-phenylacetyl)thiourea]	8.00	–	–	pIC50 (c-kit; h-SCF stimulation): 6.98
CCOc1ccc(C(=O)NC(=S)Nc2ccc(Oc3ncnc4cc(OC)c(OC)cc34)cc2)cc1 [Example 716, N-{4-[(6,7-Dimethoxy-4-quinazolinyl)oxy]phenyl}-N′-(4-ethoxybenzoyl)thiourea]	7.96	–	–	inhibition at 1 µM (c-kit; [1]): 19%
CCCCCCOC(=O)Nc1ccc(Oc2ncnc3cc(OC)c(OC)cc23)cc1Cl [Example 336, Hexyl N-{2-chloro-4-[(6,7-dimethoxy-4-quinazolinyl)oxy]phenyl}carbamate]	–	7.85	6.96	–
COc1cccc(OC(=O)Nc2ccc(Oc3ccnc4cc(OC)c(OC)cc34)c(C)c2C)c1 [Example 291, 3-Methoxyphenyl N-{4-[(6,7-dimethoxy-4-quinolyl)oxy]-2,3-dimethylphenyl}carbamate]	–	7.59	6.91	–
COc1cc2nccc(Oc3ccc(NC(=O)OCCCSc4ccc(Cl)cc4C)cc3)c2cc1OC [Example 77, 3-[(4-Chloro-2-methylphenyl)sulfanyl]propyl N-{4-[(6,7-dimethoxy-4-quinolyl)oxy]phenyl}carbamate]	–	> 8.00	7.00	–
COc1cc2ncnc(Oc3ccc(NC(=O)NC4CCN(Cc5ccccc5)CC4)c(Cl)c3)c2cc1OC [Example 637, N-(1-Benzyl-4-piperidyl)-N′-{2-chloro-4-[(6,7-dimethoxy-4-quinazolinyl)oxy]phenyl}urea]	7.28	–	–	pIC50 (c-kit; 50 ng/ml h-SCF): 6.43
CCCC(CCN1CCOCC1)OC(=O)Nc1cc(C)c(Oc2ccnc3cc(OC)c(OC)cc23)cc1C (stereo not drawn) [Example 438, 1-(2-Morpholinoethyl)butyl N-{4-[(6,7-dimethoxy-4-quinolyl)oxy]-2,5-dimethylphenyl}carbamate]	< 7.00	–	–	inhibition at 0.1 µM (PDGF-Ra; [2]): 41%; pIC50 (c-kit; 50 ng/ml h-SCF): 6.38
COc1cc2nccc(Oc3cc(C)c(NC(=O)OC(C)c4ccc(C)cc4)cc3C)c2cc1OC (stereo not drawn) [Example 134, 1-(4-Methylphenyl)ethyl N-{4-[(6,7-dimethoxy-4-quinolyl)oxy]-2,5-dimethylphenyl}carbamate]	–	< 7.00	6.03	inhibition at 0.1 µM (PDGF-Ra; figure in parentheses in >100( )): 49%
1-(3-Chlorophenyl)ethyl N-{4-((6,7-dimethoxy-4-quinazolinyl)oxy)phenyl}carbamate [Example 3]	–	> 8.00	6.76	–
COc1ccccc1CC(=O)NC(=S)Nc1ccc(Oc2ccnc3cc(OC)c(OC)cc23)c(Cl)c1 [Example 734, N-{3-Chloro-4-[(6,7-dimethoxy-4-quinolyl)oxy]phenyl}-N′-[2-(2-methoxyphenyl)acetyl]thiourea]	7.54	–	–	pIC50 (c-kit; 50 ng/ml h-SCF): 6.67
COc1cc2ncnc(Oc3ccc(NC(=S)NCCN(C)C)cc3)c2cc1OC [Example 559, N-{4-[(6,7-Dimethoxy-4-quinazolinyl)oxy]phenyl}-N′-(2-dimethylaminoethyl)thiourea]	7.44	–	–	pIC50 (c-kit; 50 ng/ml h-SCF): 6.15
COc1cc2nccc(Oc3ccc(NC(=O)OCC4CCCC4)cc3)c2cc1OC [Example 394, Cyclopentylmethyl N-{4-[(6,7-dimethoxy-4-quinolyl)oxy]phenyl}carbamate]	–	> 8.00	6.88	–
COc1cc2ncnc(Oc3ccc(NC(=O)OCCCOc4ccccc4F)c(C)c3C)c2cc1OC [Example 146, 3-(2-Fluorophenoxy)propyl N-{4-[(6,7-dimethoxy-4-quinazolinyl)oxy]-2,3-dimethylphenyl}carbamate]	–	7.96	7.49	–
COc1ccc(C(C)OC(=O)Nc2ccc(Oc3ccnc4cc(OC)c(OC)cc34)cc2)cc1 (stereo not drawn) [Example 32, 1-(4-Methoxyphenyl)ethyl N-{4-[(6,7-dimethoxy-4-quinolyl)oxy]phenyl}carbamate]	–	7.80	6.64	–

Molecule	pIC50 (PDGF-Ra)	pIC50 (PDGF-Ra; Pharmacological Test Example 1)	pIC50 (c-kit; h-SCF 50 ng/ml)	also measured
COc1ccc(C(=O)NC(=S)Nc2ccc(Oc3ccnc4cc(OC)c(OC)cc34)c(Cl)c2)cc1OC [Example 1204, N-{3-Chloro-4-[(6,7-dimethoxy-4-quinolyl)oxy]phenyl}-N′-(3,4-dimethoxybenzoyl)thiourea]	7.74	–	–	pIC50 (c-kit; h-SCF stimulation): 6.36
C#CCC(CC)OC(=O)Nc1cc(C)c(Oc2ccnc3cc(OC)c(OC)cc23)cc1C (stereo not drawn) [Example 409, 1-Ethyl-3-butynyl N-{4-[(6,7-dimethoxy-4-quinolyl)oxy]-2,5-dimethylphenyl}carbamate]	7.59	–	–	pIC50 (c-kit; 50 ng/ml h-SCF): 6.41
COc1cc2ncnc(Oc3ccc(NC(=S)NC(=O)CC4CCCCC4)cc3)c2cc1OC [Example 705, N-(2-Cyclohexylacetyl)-N′-{4-[(6,7-dimethoxy-4-quinazolinyl)oxy]phenyl}thiourea]	> 8.00	–	–	pIC50 (c-kit; 50 ng/ml h-SCF): 6.83
COc1cc2nccc(Oc3ccc(NC(=S)NC(=O)c4cc(C)oc4C)cc3Cl)c2cc1OC [Example 699, N-{3-Chloro-4-[(6,7-dimethoxy-4-quinolyl)oxy]phenyl}-N′-[(2,5-dimethyl-3-furyl)carbonyl]thiourea]	7.89	–	–	inhibition at 1 µM (c-kit; [1]): 29%
COc1cccc(OCCCOC(=O)Nc2ccc(Oc3ncnc4cc(OC)c(OC)cc34)cc2)c1 [Example 50, 3-(3-Methoxyphenoxy)propyl N-{4-[(6,7-dimethoxy-4-quinazolinyl)oxy]phenyl}carbamate]	–	> 8.00	7.30	–
CCCc1ccc(C(=O)NC(=S)Nc2ccc(Oc3ccnc4cc(OC)c(OC)cc34)cc2F)cc1 [Example 994, N-{4-[(6,7-Dimethoxy-4-quinolyl)oxy]-2-fluorophenyl}-N′-(4-propylbenzoyl)thiourea]	7.57	–	–	inhibition at 1 µM (c-kit; figure in parentheses in −( )): 47%
COc1cc2ncnc(Oc3ccc(NC(=O)OC4CCN(C)CC4)cc3)c2cc1OC [Example 469, 1-Methyl-4-piperidyl N-{4-[(6,7-dimethoxy-4-quinazolinyl)oxy]phenyl}carbamate]	< 7.00	–	–	inhibition at 0.1 µM (PDGF-Ra; [2]): 0%; inhibition at 1 µM (c-kit; [1]): 28%
COc1cc2ncnc(Oc3ccc(NC(=O)NCCN(C(C)C)C(C)C)cc3)c2cc1OC [Example 656, N-[2-(Diisopropylamino)ethyl]-N′-{4-[(6,7-dimethoxy-4-quinazolinyl)oxy]phenyl}urea]	7.72	–	–	inhibition at 1 µM (c-kit; [1]): 32%
COc1cc2nccc(Oc3cc(C)c(NC(=O)OCC4CCCCC4)cc3C)c2cc1OC [Example 284, Cyclohexylmethyl N-{4-[(6,7-dimethoxy-4-quinolyl)oxy]-2,5-dimethylphenyl}carbamate]	–	> 8.00	6.57	–
COc1cc2nccc(Oc3cc(C)c(NC(=O)OC4CCOCC4)cc3C)c2cc1OC [Example 471, Tetrahydro-2H-4-pyranyl N-{4-[(6,7-dimethoxy-4-quinolyl)oxy]-2,5-dimethylphenyl}carbamate]	< 7.00	–	–	inhibition at 0.1 µM (PDGF-Ra; [2]): 28%; pIC50 (c-kit; 50 ng/ml h-SCF): 6.63
CCOc1ccccc1C(C)OC(=O)Nc1ccc(Oc2ccnc3cc(OC)c(OC)cc23)cc1 (stereo not drawn) [Example 127, 1-(2-Ethoxyphenyl)ethyl N-{4-[(6,7-dimethoxy-4-quinolyl)oxy]phenyl}carbamate]	–	7.80	6.55	–
COc1cc2nccc(Oc3ccc(NC(=O)OCC4CCCCCC4)cc3)c2cc1OC [Example 348, Cycloheptylmethyl N-{4-[(6,7-dimethoxy-4-quinolyl)oxy]phenyl}carbamate]	–	> 8.00	7.05	–
CCCC(CCN1CCOCC1)OC(=O)Nc1ccc(Oc2ncnc3cc(OC)c(OC)cc23)cc1 (stereo not drawn) [Example 440]	7.33	–	–	pIC50 (c-kit; 50 ng/ml h-SCF): 6.45
COc1cc2nccc(Oc3ccc(NC(=O)NC4CCN(Cc5ccccc5)CC4)c([N+](=O)[O-])c3)c2cc1OC [Example 638, N-(1-Benzyl-4-piperidyl)-N′-{4-[(6,7-dimethoxy-4-quinolyl)oxy]-2-nitrophenyl}urea]	< 7.00	–	–	inhibition at 0.1 µM (PDGF-Ra; [2]): 43%; inhibition at 1 µM (c-kit; [1]): 16%
COc1cc2nccc(Oc3ccc(NC(=S)NC(=O)c4ccc(CCl)cc4)cc3Cl)c2cc1OC [Example 1137, N-{3-Chloro-4-[(6,7-dimethoxy-4-quinolyl)oxy]phenyl}-N′-[4-(chloromethyl)benzoyl]thiourea]	7.55	–	–	inhibition at 1 µM (c-kit; figure in parentheses in −( )): 38%
COc1cc2nccc(Oc3cc(C)c(NC(=O)OC(C)c4cccc(Cl)c4)cc3C)c2cc1OC (stereo not drawn) [Example 5, 1-(3-Chlorophenyl)ethyl N-{4-[(6,7-dimethoxy-4-quinolyl)oxy]-2,5-dimethylphenyl}carbamate]	–	7.62	6.47	–
